In patent US12336537B2, “Fungicidal compositions” (SYNGENTA CROP PROTECTION AG, priority 2020, dated 2025):

Each molecule was assayed on Glomerella lagenarium (Colletotrichum lagenarium) (assay: Example A3: Glomerella lagenarium (Colletotrichum lagenarium) / liquid culture (anthracnose)). Conditions: Colletotrichum orbiculare, 3-4 days after application, compared to untreated control.
Format: cell-based
`CCCCCNC(=O)c1nc(N(C#N)c2cc(F)nc(F)c2)sc1C` [X.20, 2-[cyano-(2,6-difluoro-4-pyridyl)amino]-5-methyl-N-pentyl-thiazole-4-carboxamide] was tested, and the inhibition of growth at 20 ppm was at least 80%.

What follows are molecules tested on Puccinia recondita f. sp. tritici (assay: not given). Conditions: in Triticum aestivum, foliar, read-out: control of Puccinia recondita f, sp. tritici.
`Cc1sc(N(C#N)c2cc(F)nc(F)c2)nc1C(=O)NCC1(CC2CC2)CC1` [X.10, 2-[cyano-(2,6-difluoro-4-pyridyl)amino]-N-[[1-(cyclopropylmethyl)cyclopropyl]methyl]-5-methyl-thiazole-4-carboxamide] showed a pest or weed control at 200 ppm of at least 80%.
In the case of `Cc1sc(N(C#N)c2cc(F)nc(F)c2)nc1C(=O)NC1CCC12Cc1ccccc1C2` (stereo not drawn) [X.08, 2-[cyano-(2,6-difluoro-4-pyridyl)amino]-5-methyl-N-spiro[cyclobutane-2,2′-indane]-1-yl-thiazole-4-carboxamide], the pest or weed control at 200 ppm is reported as at least 80%.
`Cc1sc(N(C#N)c2cc(F)nc(F)c2)nc1C(=O)NCC(C)(C)C` [X.18, 2-[cyano-(2,6-difluoro-4-pyridyl)amino]-N-(2,2-dimethylpropyl)-5-methyl-thiazole-4-carboxamide] showed a pest or weed control at 200 ppm of at least 80%.
`Cc1sc(N(C#N)c2cc(F)nc(F)c2)nc1C(=O)NCc1ccccc1` [X.23, N-benzyl-2-[cyano-(2,6-difluoro-4-pyridyl)amino]-5-methyl-thiazole-4-carboxamide] gave a pest or weed control at 200 ppm of at least 80%.
With `Cc1sc(N(C#N)c2cc(F)nc(F)c2)nc1C(=O)NC1CCC1(C)C` (stereo not drawn) [X.05, 2-[cyano-(2,6-difluoro-4-pyridyl)amino]-N-(2,2-dimethylcyclobutyl)-5-methyl-thiazole-4-carboxamide] the pest or weed control at 200 ppm was at least 80%.
`Cc1sc(N(C#N)c2cc(F)nc(F)c2)nc1C(=O)NC1CCC12CCC2` (stereo not drawn) [X.09, 2-[cyano-(2,6-difluoro-4-pyridyl)amino]-5-methyl-N-spiro[3.3]heptan-3-yl-thiazole-4-carboxamide] gave a pest or weed control at 200 ppm of at least 80%.
Work on `Cc1sc(N(C#N)c2cc(F)nc(F)c2)nc1C(=O)NC1(C)CCCC1` [X.12, 2-[cyano-(2,6-difluoro-4-pyridyl)amino]-5-methyl-N-(1-methylcyclopentyl)thiazole-4-carboxamide] yielded a pest or weed control at 200 ppm of at least 80%.
For `CCCCCNC(=O)c1nc(N(C#N)c2cc(F)nc(F)c2)sc1C` [X.20, 2-[cyano-(2,6-difluoro-4-pyridyl)amino]-5-methyl-N-pentyl-thiazole-4-carboxamide], the pest or weed control at 200 ppm was at least 80%.
`Cc1sc(N(C#N)c2cc(F)cc(F)c2)nc1C(=O)NC1(C)CCCC1` [X.11, 2-(N-cyano-3,5-difluoro-anilino)-5-methyl-N-(1-methylcyclopentyl)thiazole-4-carboxamide] gave a pest or weed control at 200 ppm of at least 80%.
`Cc1sc(N(C#N)c2cc(F)cc(F)c2)nc1C(=O)NC1CCC1(C)C` (stereo not drawn) [X.03, 2-(N-cyano-3,5-difluoro-anilino)-N-(2,2-dimethylcyclobutyl)-5-methyl-thiazole-4-carboxamide] gave a pest or weed control at 200 ppm of at least 80%.
Molecule `Cc1sc(N(C#N)c2cc(F)nc(F)c2)nc1C(=O)NCC(C)C` [X.15, 2-[cyano-(2,6-difluoro-4-pyridyl)amino]-N-isobutyl-5-methyl-thiazole-4-carboxamide] has a pest or weed control at 200 ppm of at least 80%.
`CCCCCCNC(=O)c1nc(N(C#N)c2cc(F)nc(F)c2)sc1C` [X.14, 2-[cyano-(2,6-difluoro-4-pyridyl)amino]-N-hexyl-5-methyl-thiazole-4-carboxamide] gave a pest or weed control at 200 ppm of at least 80%.
Work on `Cc1sc(N(C#N)c2cc(F)nc(F)c2)nc1C(=O)NC1CCC1` [X.02, 2-[cyano-(2,6-difluoro-4-pyridyl)amino]-N-cyclobutyl-5-methyl-thiazole-4-carboxamide] yielded a pest or weed control at 200 ppm of at least 80%.
In the case of `Cc1sc(N(C#N)c2cc(F)nc(F)c2)nc1C(=O)NC(C)c1ccccc1` (stereo not drawn) [X.16, 2-[cyano-(2,6-difluoro-4-pyridyl)amino]-5-methyl-N-(1-phenylethyl)thiazole-4-carboxamide], the pest or weed control at 200 ppm is reported as at least 80%.
Work on `CCCCNC(=O)c1nc(N(C#N)c2cc(F)nc(F)c2)sc1C` [X.24, N-butyl-2-[cyano-(2,6-difluoro-4-pyridyl)amino]-5-methyl-thiazole-4-carboxamide] yielded a pest or weed control at 200 ppm of at least 80%.
For `Cc1sc(N(C#N)c2cc(F)nc(F)c2)nc1C(=O)NC1CCC12CCCC2` (stereo not drawn) [X.07, 2-[cyano-(2,6-difluoro-4-pyridyl)amino]-5-methyl-N-spiro[3.4]octan-3-yl-thiazole-4-carboxamide], the pest or weed control at 200 ppm was at least 80%.

Each molecule was assayed on Mycosphaerella arachidis (Cercospora arachidicola) (assay: Example A7: Mycosphaerella arachidis (Cercospora arachidicola) / liquid culture (early leaf spot)). Conditions: 4-5 days after application, compared to untreated control.
Format: cell-based
Molecule `Cc1sc(N(C#N)c2cc(F)nc(F)c2)nc1C(=O)NCC(C)C` [X.15, 2-[cyano-(2,6-difluoro-4-pyridyl)amino]-N-isobutyl-5-methyl-thiazole-4-carboxamide] has an inhibition of growth at 20 ppm of at least 80%.
